Test results published in patent US20250129021A1, “SMALL MOLECULE PROTEIN SYNTHESIS MODULATORS” (Interdict Bio, Inc., priority 2023, published 2025).

Tests used:
Format in all cases: biochemical
MYC = assay: In vitro transcription-translation (IVTT) assay, MYC reporter; conditions: IVTT assay, HeLa S3 lysate, MYC reporter, normalized sfGFP/mCherry ratio; half-log dilutions 30 μM-0.1 μM, 2 hrs at 30° C.
In short: (§1)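 Reporter: mCherry, P2A, then 3×FLAG-target peptide-sfGFP fusion, IRES-initiated; HeLa S3 lysate IVTT; cpd dilutions 30 μM−0.1 μM half-log in 100% DMSO (dilution-plate conc); DNA added last; 2 h, 30° C; PBS quench.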

MCL-1 = assay: In vitro transcription-translation (IVTT) assay, MCL-1 reporter; conditions: IVTT, HeLa S3 lysate, 2 hrs at 30° C.; read-out: MCL1 IC50
In short: as §1

CCNTB1 = assay: In vitro transcription-translation (IVTT) assay, CCNTB1 reporter; conditions: HeLa S3 lysate, 2 hrs at 30° C.
Protocol: Each preparation takes 8 cell pellets (4 ml packed volume each, approximately 1.0×10^9 cells per pellet). Thaw cell pellets from −80° C. on ice for 90 mins. Lay pellets horizontally on top of the ice and rotate every 30 mins to ensure even thawing. Once thawed, add 4 mL of cold lysis buffer to each pellet, and using a serological pipet, gently pipet up and down to break up clumps. Incubate resuspended cells in ice for an additional 30 mins (plunged into ice). During 30 min incubation, rinse and RNase-zap (Ambion) glass dounces (use loose pestle “A”), gently dry and place on ice until needed. Prepare RNase-free Eppendorf tubes for spinning and for batch storage. Add batch labels to 1.5-1.7 mL RNase-free microcentrifuge tubes (labeling scheme below). Each batch will have an extra 1.5-1.7 mL RNase-free microcentrifuge tube for 40 μL of lysate, label the top of this tube (labeling scheme below). After 30 min incubation, transfer all 8 mL of cell pellet to dounce. Cell lysis is complete after douncing 100 times. Aliquot cell lysis into 1.5-1.7 mL temporary-microcentrifuge tubes. Place tubes in centrifuge with “fins” out, and spin at 1,200×g for 5 mins. After the first spin use a 1 mL pipet to resuspend each tube and repeat spin. This acts as an additional lysis step, is more vigorous and increases lysate yield. During second spin get liquid N2 and a fresh conical tube on ice. After spin is complete, transfer supernatant (lysate) from microcentrifuge tubes into the 50 mL conical tube and keep on ice. Repeat steps 10-14 for all other cell pellets until completed. Once all cell lysate has been transferred to the 50 mL conical tube pipet to mix so the solution is homogenous. Transfer 1 mL of lysate into batch-labeled microcentrifuge tubes and flash freeze in liquid nitrogen. Be sure to pipet up and down to mix throughout transfer step. Place all tubes in the […] for long-term storage.
In vitro transcription-translation assay setup: Each assay includes a master mix containing lysate and shared components, a 96-well plate containing compound titrations for testing, a 96-well DNA plate with reporter constructs to be tested, 96-well skirted PCR plates, and 96-well flat-bottom, black, fluorescent assay plates. Reaction materials setup: (A) Master mix—15 mL conical tube (3 mL of HeLa S3 Lysate described above; 0.6 mL of ThermoFisher Accessory Proteins (#88882); 1.2 ml of ThermoFisher Reaction Mix (#88882); 0.54 mL of nuclease-free Water); (B) 96-Well Master Mix+Compound Plate (Half-log dilutions (30 μM−0.1 μM) of 4 compounds of interest are prepared in 100% DMSO); 96-Well DNA Plate (Five DNA constructs are plated into single columns within the plate. Row 1 of the column contains nuclease free H2O, all other wells contain 110 ng/μL plasmid DNA). Reactions are started by mixing 155 μL of master mix and 3.5 μL of compound serial dilutions, then 9.1 μL of master mix+compound mixture is aliquoted across 5 96-well plates. Reactions begin with final addition of 2 μL of DNA for a 11.1 μL reaction volume in each well. The entire plate is sealed, and incubated for 2 hrs at 30° C. After 2 hrs, quench the assay using 45 μL of PBS, and transfer 50 μL to a flat-bottom black microplate Quantify the sfGFP and mCherry signals from each well on each plate, taking 3 reads of each plate, and perform data analysis below.
In vitro transcription-translation assay data analysis: Each plate is read three times in channels for both sfGFP and mCherry signals. The average signal across these 3 reads is then calculated for further analysis. Control wells containing no DNA reporter are subtracted from reporter wells in the same column to remove auto-fluorescence of the lysate. Then, the ratio of sfGFP/mCherry is calculated per well, and these ratios are averaged across the triplicate experiments on the same plate. Finally, the ratio of each titration concentration is normalized to the no drug control to create the normalized stalling metric. […]

CCND1 = assay: In vitro transcription-translation (IVTT) assay, CCND1 reporter; conditions: IVTT, HeLa S3 lysate, 2 hrs at 30° C.
In short: as §1

| SMILES | IC50 (MYC) [µM] | IC50 (MCL-1) [µM] | IC50 (CCNTB1) [µM] | IC50 (CCND1) [µM] |
| --- | --- | --- | --- | --- |
| O=C(NCc1cccc(F)c1)O[C@@H]1[C@@H](O)CN[C@@H]1Cc1ccc(-n2ccnc2)cc1 [V190515, (2R,3S,4S)-4-hydroxy-2-{[4-(imidazol-1-yl)phenyl]methyl}pyrrolidin-3-yl N-[(3-fluorophenyl)methyl]carbamate] | < 10 | < 10 | < 10 | < 10 |
| COc1ccc(C[C@H]2NC[C@H](O)[C@H]2OC(=O)NCCC(C)(C)O)cc1 [V190413, (2R,3S,4S)-4-hydroxy-2-[(4-methoxyphenyl)methyl]pyrrolidin-3-yl N-(3-hydroxy-3-methylbutyl)carbamate] | 10 to 20 | 10 to 20 | < 10 | 20 to 30 |
| COc1ccc(C[C@H]2NC[C@H](O)[C@H]2OC(=O)NCC23CC(C2)C3)cc1 [V188324, (2R,3S,4S)-4-hydroxy-2-[(4-methoxyphenyl)methyl]pyrrolidin-3-yl N-{bicyclo[1.1.1]pentan-1-ylmethyl}carbamate] | 10 to 20 | 10 to 20 | < 10 | 10 to 20 |
| COc1ccc(C[C@H]2NC[C@H](O)[C@H]2OC(=O)NCc2cccc(Cl)c2)cc1 [V191904, (2R,3S,4S)-4-hydroxy-2-[(4-methoxyphenyl)methyl]pyrrolidin-3-yl N-[(3-chlorophenyl)methyl]carbamate] | < 10 | < 10 | < 10 | < 10 |
| COc1ccc(C[C@H]2NC[C@H](O)[C@H]2OC(=O)NCC(=O)NCC(=O)O)cc1 [V188018, {2-[({[(2R,3S,4S)-4-hydroxy-2-[(4-methoxyphenyl)methyl]pyrrolidin-3-yl]oxy}carbonyl)amino]acetamido}acetic Acid] | 10 to 20 | > 30 | > 30 | > 30 |
| COc1ccc(C[C@H]2NC[C@H](O)[C@H]2OC(=O)NCc2ccccc2Cl)cc1 [V191915, (2R,3S,4S)-4-hydroxy-2-[(4-methoxyphenyl)methyl]pyrrolidin-3-yl N-[(2-chlorophenyl)methyl]carbamate] | < 10 | < 10 | < 10 | < 10 |
| COc1ccc(C[C@H]2NC[C@H](O)[C@H]2OC(=O)NCc2ccccc2C#N)cc1 [V191911, (2R,3S,4S)-4-hydroxy-2-[(4-methoxyphenyl)methyl]pyrrolidin-3-yl N-[(2-cyanophenyl)methyl]carbamate] | < 10 | < 10 | < 10 | 10 to 20 |
| COc1ccc(C[C@H]2NC[C@H](O)[C@H]2OC(=O)NCC23CC(N)(C2)C3)cc1 [V188323, (2R,3S,4S)-4-hydroxy-2-[(4-methoxyphenyl)methyl]pyrrolidin-3-yl N-({3-aminobicyclo[1.1.1]pentan-1-yl}methyl)carbamate] | 10 to 20 | 20 to 30 | < 10 | 20 to 30 |
| COc1ccc(C[C@H]2NC[C@H](O)[C@H]2OC(=O)NCc2ccccc2F)cc1 [V190520, (2R,3S,4S)-4-hydroxy-2-[(4-methoxyphenyl)methyl]pyrrolidin-3-yl N-[(2-fluorophenyl)methyl]carbamate] | < 10 | < 10 | < 10 | 10 to 20 |
| COc1ccc(C[C@H]2NC[C@H](O)[C@H]2OC(=O)NCc2nnc(C)o2)cc1 [V188303, (2R,3S,4S)-4-hydroxy-2-[(4-methoxyphenyl)methyl]pyrrolidin-3-yl N-[(5-methyl-1,3,4-oxadiazol-2-yl)methyl]carbamate] | < 10 | < 10 | < 10 | < 10 |
| O=C(NCc1cccc(F)c1)O[C@@H]1[C@@H](O)CN[C@@H]1Cc1ccc(-c2cscn2)cc1 [V190511, (2R,3S,4S)-4-hydroxy-2-{[4-(1,3-thiazol-4-yl)phenyl]methyl}pyrrolidin-3-yl N-[(3-fluorophenyl)methyl]carbamate] | < 10 | < 10 | < 10 | < 10 |
| COc1ccc(C[C@H]2NC[C@H](O)[C@H]2OC(=O)NCCc2cnoc2)cc1 [V190449, (2R,3S,4S)-4-hydroxy-2-[(4-methoxyphenyl)methyl]pyrrolidin-3-yl N-[2-(1,2-oxazol-4-yl)ethyl]carbamate] | < 10 | < 10 | < 10 | < 10 |
| O=C(NCC[C@@H]1CCCN1)O[C@@H]1[C@@H](O)CN[C@@H]1Cc1ccc(F)cc1 [V191886, (2R,3S,4S)-2-[(4-fluorophenyl)methyl]-4-hydroxypyrrolidin-3-yl N-{2-[(2S)-pyrrolidin-2-yl]ethyl}carbamate] | < 10 | < 10 | < 10 | < 10 |
| O=C(NCc1cccc(F)c1)O[C@@H]1[C@@H](O)CN[C@@H]1Cc1ccc(C2CC2)cc1 [V190518, (2R,3S,4S)-2-[(4-cyclopropylphenyl)methyl]-4-hydroxypyrrolidin-3-yl N-[(3-fluorophenyl)methyl]carbamate] | 10 to 20 | 10 to 20 | < 10 | 20 to 30 |
| O=C(NCC1CC1)O[C@@H]1[C@@H](O)CN[C@@H]1Cc1ccc(-c2c[nH]nn2)cc1 [V188327, (2R,3S,4S)-4-hydroxy-2-{[4-(1H−1,2,3-triazol-4-yl)phenyl]methyl}pyrrolidin-3-yl N-(cyclopropylmethyl)carbamate] | < 10 | < 10 | < 10 | < 10 |
| COc1ccc(C[C@H]2NC[C@H](O)[C@H]2OC(=O)NCC2CCC2)cc1 [V188318, (2R,3S,4S)-4-hydroxy-2-[(4-methoxyphenyl)methyl]pyrrolidin-3-yl N-(cyclobutylmethyl)carbamate] | < 10 | < 10 | < 10 | < 10 |
| COc1ccc(C[C@H]2NC[C@H](O)[C@H]2OC(=O)NCc2cc(F)cc(F)c2)cc1 [V188380, (2R,3S,4S)-4-hydroxy-2-[(4-methoxyphenyl)methyl]pyrrolidin-3-yl N-[(3,5-difluorophenyl)methyl]carbamate] | < 10 | < 10 | < 10 | < 10 |
| COc1ccc(C[C@H]2NC[C@H](O)[C@H]2OC(=O)NCc2ccnc3c2CCN3)cc1 [V188360, (2R,3S,4S)-4-hydroxy-2-[(4-methoxyphenyl)methyl]pyrrolidin-3-yl N-{1H,2H,3H-pyrrolo[2,3-b]pyridin-4-ylmethyl}carbamate] | < 10 | < 10 | < 10 | < 10 |
| COc1ccc(C[C@H]2NC[C@H](O)[C@H]2OC(=O)NCC#Cc2ccccc2)cc1 [V188315, (2R,3S,4S)-4-hydroxy-2-[(4-methoxyphenyl)methyl]pyrrolidin-3-yl N-(3-phenylprop-2-yn-1-yl)carbamate] | 10 to 20 | < 10 | < 10 | 20 to 30 |
| COc1ccc(C[C@H]2NC[C@H](O)[C@H]2OC(=O)NCC(=O)N[C@@H](C)C(=O)O)cc1 [V188019, (2S)-2-{2-[({[(2R,3S,4S)-4-hydroxy-2-[(4-methoxyphenyl)methyl]pyrrolidin-3-yl]oxy}carbonyl)amino]acetamido}propanoic acid] | 10 to 20 | > 30 | > 30 | > 30 |
